# In patent publication US20160115540A1, “PRODRUGS AND DRUGS” (Biogen MA Inc., priority 2013, published 2016):
# Where a name gives a salt, the structure may show the parent alone.
# Tested on: liver
# Assay: Transcriptional profiling on Affymetrix GeneChips, single dose, naïve mice: liver
# Assay type: in vivo, C57BL/6 mice
# Details: liver
# Description: Treated mice were sacrificed at 2, 7, or 12 hours. Tissues (liver, spleen, kidney, jejunum, cortex, hippocampus, striatum and whole blood) were collected and analyzed by transcriptional profiling on mouse Affymetrix GeneChips.
# Tissues (liver, spleen, kidney, jejunum, cortex, hippocampus, striatum and whole blood) were collected and analyzed by transcriptional profiling on mouse Affymetrix GeneChips.
# Animals were exposed to CO2 and whole blood collected via cardiac puncture. Two 100 μl aliquots of whole blood were collected in 1.5 mL microcentrifuge tubes and snap frozen in liquid nitrogen. Peripheral (liver, spleen, kidney and jejunum) and CNS brain (cerebellum, hippocampus, striatum and cortex) tissues were harvested and snap frozen in liquid nitrogen, with special care taken to collect tissues of similar size and from the same location. All samples were stored at −80° C. until RNA extraction was conducted.
# For RNA preparation, frozen tissues were placed in 2 mL RNAse-free 96-well blocks with 1.5 mL QIAzol Lysis Reagent (QIAgen) and a 3.2 mm stainless steel bead (BioSpec Products, Bartlesville, Okla.). Tissues were disrupted for four cycles of 45 seconds in a Mini-Beadbeater (Biospec Products). RNA was extracted in chloroform and the aqueous phase was mixed with an equal volume of 70% ethanol. Extracted RNA was applied to RNeasy 96 plates and purified by the spin method according to the manufacturer's protocol (RNeasy 96 Universal Tissue Protocol, QIAgen, Hilden Germany).
# Automated sample amplifications and biotin labelings were carried out using the NuGEN Ovation RNA Amplification system V2 (Cat #3100), Ovation WB reagent (Cat #1300) and Encore Biotin module (Cat #4200) (NuGEN Technologies, Inc, San Carlos, Calif.) according to manufacturer's recommendations using an Arrayplex automated liquid handler (Beckman Coulter, Indianapolis, Ind.). Two micrograms of biotin labeled sscDNA probe were hybridized to Affymetrix GeneChip Affymetrix HT_MG-430_PM plate arrays with modified conditions as described in Allaire et al. Washing and staining of the hybridized arrays were completed as described in the GeneChip Expression analysis technical manual for HT plate arrays using the Genechip® Array Station (Affymetrix, Santa Clara, Calif.) with modifications as described in Allaire et al. The processed GeneChip® plate arrays were scanned using GeneTitan scanner (Affymetrix, Santa Clara, Calif.).
# Affymetrix scans were subject to quality control (QC) measures. These tests included a visual inspection of the distribution of raw signal intensities and an assessment of RNA degradation, relative log expression (RLE), and normalized unsealed standard error (NUSE). All sample scans that passed these QC metrics were included in the analysis.
# All CEL files were subjected to GC-content-based Robust Multi-array Average (GCRMA) normalization (version 2.20.0) (Irizarry R A, et al. Nucleic Acids Res 2003; 31:e15; Li C, et al. Genome Biol 2001; 2:[…]0032). Expression levels were log (base 2) transformed.
# All calculations and analyses were carried out using R (version 2.11.1) and Bioconductor computational tools (Gentleman R. Springer Science+Business Media 2005).
# [1] = 100 mg/kg, 7 hr, vs matched vehicle controls
# [2] = 100 mg/kg, 12 hr, vs matched vehicle controls
smiles,measurement,setting,value
"COC(=O)/C=C/C(=O)O [MMF, monomethyl fumarate]",Murine Liver DEGs: Srxn1 (1419942_PM_at),"100 mg/kg, 2 hr, vs matched vehicle controls",1.68
same,Murine Liver DEGs: Akr1b8 (1448894_PM_at),[1],1.75
same,Murine Liver DEGs: Bmp6 (1450759_PM_at),[1],1.65
same,Murine Liver DEGs: Cda (1427357_PM_at),[1],1.92
same,Murine Liver DEGs: Clec4n (1419627_PM_s_at),[1],2.40
same,Murine Liver DEGs: Erc2 (1434582_PM_at),[1],−1.95
same,Murine Liver DEGs: Fzd8 (1445815_PM_at),[1],−1.81
same,Murine Liver DEGs: G6pdx (1448354_PM_at),[1],1.61
same,Murine Liver DEGs: Irak3 (1435040_PM_at),[1],1.53
same,Murine Liver DEGs: Marco (1449498_PM_at),[1],2.44
same,Murine Liver DEGs: Nqo1 (1423627_PM_at),[1],2.20
same,Murine Liver DEGs: Pir (1429001_PM_at),[1],1.50
same,Murine Liver DEGs: Srxn1 (1419942_PM_at),[1],1.52
same,Murine Liver DEGs: Ablim1 (1453103_PM_at),[2],−1.51
same,Murine Liver DEGs: Atp6v0d2 (1444176_PM_at),[2],1.84
same,Murine Liver DEGs: Car3 (1460256_PM_at),[2],−1.57
same,Murine Liver DEGs: Ccnf (1443807_PM_x_at),[2],1.57
same,Murine Liver DEGs: Clmn (1439117_PM_at),[2],−1.54
same,Murine Liver DEGs: Ctla2a (1448471_PM_a_at),[2],1.63
same,Murine Liver DEGs: Dnajc12 (1417441_PM_at),[2],2.53
same,Murine Liver DEGs: Fndc3b (1433833_PM_at),[2],1.66
same,Murine Liver DEGs: Gadd45b (1450971_PM_at),[2],1.50
same,Murine Liver DEGs: Gm3579 (1431214_PM_at),[2],2.74
same,Murine Liver DEGs: Hyou1 (1423290_PM_at),[2],1.82
same,Murine Liver DEGs: Lrrc59 (1416235_PM_at),[2],1.65
same,Murine Liver DEGs: Nme6 (1448574_PM_at),[2],1.57
same,Murine Liver DEGs: Ppapdc1b (1428154_PM_s_at),[2],1.87
same,Murine Liver DEGs: Ppm1k (1441988_PM_at),[2],−1.56
same,Murine Liver DEGs: Prtn3 (1419669_PM_at),[2],4.46
same,Abcc1 (probe set 1452233_PM_at) differential expression,2 hr,1.86
same,Akr1b8 (probe set 1448894_PM_at) differential expression,2 hr,2.27
same,Ampd3 (probe set 1422573_PM_at) differential expression,2 hr,1.70
same,Caprin1 (probe set 1448348_PM_at) differential expression,2 hr,−1.56
same,Clec4d (probe set 1420804_PM_s_at) differential expression,2 hr,2.05
same,Cmah (probe set 1447019_PM_at) differential expression,2 hr,−1.55
same,Csnk2a1 (probe set 1419038_PM_a_at) differential expression,2 hr,−1.62
same,Figf (probe set 1438953_PM_at) differential expression,2 hr,2.25
same,Fxr1 (probe set 1452247_PM_at) differential expression,2 hr,−1.53
same,Gclc (probe set 1424296_PM_at) differential expression,2 hr,1.72
same,Hmox1 (probe set 1448239_PM_at) differential expression,2 hr,2.41
same,Meis2 (probe set 1440091_PM_at) differential expression,2 hr,−1.67
same,Mkln1 (probe set 1416734_PM_at) differential expression,2 hr,−1.69
same,Pgd (probe set 1436771_PM_x_at) differential expression,2 hr,1.61
same,Ppfibp2 (probe set 1417801_PM_a_at) differential expression,2 hr,2.55
same,Prpf38b (probe set 1455016_PM_at) differential expression,2 hr,−1.53
same,Ptprb (probe set 1453908_PM_at) differential expression,2 hr,−1.76
same,Ptprg (probe set 1456070_PM_at) differential expression,2 hr,−1.85
same,Srxn1 (probe set 1419942_PM_at) differential expression,2 hr,1.68
same,Akr1b8 (probe set 1448894_PM_at) differential expression,7 hr,1.75
same,Bmp6 (probe set 1450759_PM_at) differential expression,7 hr,1.65
same,Cda (probe set 1427357_PM_at) differential expression,7 hr,1.92
same,Clec4n (probe set 1419627_PM_s_at) differential expression,7 hr,2.40
same,Erc2 (probe set 1434582_PM_at) differential expression,7 hr,−1.95
same,Fzd8 (probe set 1445815_PM_at) differential expression,7 hr,−1.81
same,G6pdx (probe set 1448354_PM_at) differential expression,7 hr,1.61
same,Irak3 (probe set 1435040_PM_at) differential expression,7 hr,1.53
same,Marco (probe set 1449498_PM_at) differential expression,7 hr,2.44
same,Nqo1 (probe set 1423627_PM_at) differential expression,7 hr,2.20
same,Pir (probe set 1429001_PM_at) differential expression,7 hr,1.50
same,Srxn1 (probe set 1419942_PM_at) differential expression,7 hr,1.52
same,Ablim1 (probe set 1453103_PM_at) differential expression,12 hr,−1.51
same,Atp6v0d2 (probe set 1444176_PM_at) differential expression,12 hr,1.84
same,Car3 (probe set 1460256_PM_at) differential expression,12 hr,−1.57
same,Ccnf (probe set 1443807_PM_x_at) differential expression,12 hr,1.57
same,Clmn (probe set 1439117_PM_at) differential expression,12 hr,−1.54
same,Ctla2a (probe set 1448471_PM_a_at) differential expression,12 hr,1.63
same,Dnajc12 (probe set 1417441_PM_at) differential expression,12 hr,2.53
same,Fndc3b (probe set 1433833_PM_at) differential expression,12 hr,1.66
same,Gadd45b (probe set 1450971_PM_at) differential expression,12 hr,1.50
same,Gm3579 (probe set 1431214_PM_at) differential expression,12 hr,2.74
same,Hyou1 (probe set 1423290_PM_at) differential expression,12 hr,1.82
same,Lrrc59 (probe set 1416235_PM_at) differential expression,12 hr,1.65
same,Nme6 (probe set 1448574_PM_at) differential expression,12 hr,1.57
same,Ppapdc1b (probe set 1428154_PM_s_at) differential expression,12 hr,1.87
same,Ppm1k (probe set 1441988_PM_at) differential expression,12 hr,−1.56
same,Prtn3 (probe set 1419669_PM_at) differential expression,12 hr,4.46
